# How the values were obtained:
# [1] = system: sham nodose neurons; assay: Patch clamp recording of octreotide on dissociated sham nodose neurons; format: cell-based, Balb/c mice; settings: for effect on number of action potentials at 2× rheobase: sham nodose neurons
# Description: (§1) Balb/c mice were injected intraperitoneally with the retrograde labelling agent cholera toxin B 488 3-7 days prior to experiments. Mice were then anaesthetized with ketamine/xylazine, the spinal cord removed and DRG neurons isolated (T10-T13) for electrophysiological recordings 18-24 hours after their dissociation and incubation, and mounted on the stage of an inverted microscope (Leica DMIRE2)) for both bright-field and fluorescence observation. Cholera toxin labelled neurons were identified by their green fluorescence under the N3 filter system (Leica). Whole cell currents and voltage clamp experiments were performed by using MultiClamp 7A amplifier and digitized with a DigiData 1322A converter (Axon Instruments). Stimulation and data acquisition were obtained by the pClamp 9 program (Axon Instruments). Signals were sampled at 10 kHz or 20 kHz, and low-pass filtered at 4 KHz. The series resistance was compensated. Neurons were excluded from analysis if the seal resistance or access resistance was unstable, or if they fired spontaneous action potentials.
# (§2) Borosilicate glass (Harvard) was pulled with a P97 micropipette puller (Sutter, Calif.), and fire polished by a M 200 microforge (World Precision Instrument) to a tip resistance of 5-10 MΩ. A silver-silver chloride pellet (world Precision Instrument) was placed in the recording dish as the reference electrode. The normal extracellular Kreb's solution contained (in mM): NaCl 118.0, KCl 4.7, NaH2PO4 1.0, NaHCO3 25.0, MgSO4 1.2, CaCl2 2.5, D-Glucose 11.1, with pH adjusted to 7.3 by using NaOH. The normal intracellular solution contained (in mM): HEPES 10.0, KCl 130.0, MgCl2 1.0, CaCl2 1.0, EGTA 2.0, K2ATP 2, Na3GTP 0.2, titrated with KOH to pH 7.25. The extracellular solution for isolating TTX-resistance Na currents composed of (in mM): NaCl 145.0, KCl 4.8, HEPES 10.0, MgCl2 1.0, CaCl2 2.5, D-glucose 11.1, TTX 0.0003, CdCl 0.5, 4-AP 1.0, TEA-Cl 5.0, CsCl 2.0, pH adjusted to 7.3 by using NaOH, and the corresponding intracellular solution was (in mM): EPES 10.0, CsCl 130.0, MgCl2 1.0, CaCl2 1.0, EGTA 2.0, K2ATP 2.0, Na3GTP 0.2, pH adjusted to 7.25 by using CsOH. All experiments were performed at temperature of 30° C.-33° C.
# (§3) Data were analyzed by using pClamp 9 software (Axon Instruments). Neurons were recorded in both current-clamp and voltage-clamp configurations. Voltage clamp recordings were used to generate current-voltage relationships for cells. Current clamp recordings were used to determine the rheobase for action potential firing of neurons. The number of action potentials elicited at 2× rheobase was subsequently assessed in current clamp mode.
# (§4) Nodose neurons were dissociated and cultured in preparation for patch clamp experiments as has been described elsewhere. These nodose neurons were either obtained from Balb/c mice 21 days after infection with Nb or from sham mice, thus enabling a comparison of the effects of octreotide on both sham and Nb-infected nodose neurons.
# (§5) Octreotide (1 μM) was applied to individual neurons via a fast perfusion system. Octreotide's effects were recorded on the cell's resting membrane potential (RMP) and the number of action potentials fired at 2× rheobase of each neuron.
# [2] = system: Nb-infected nodose neurons; assay: Patch clamp recording of octreotide on dissociated Nb-infected nodose neurons; format: cell-based, Balb/c mice; settings: for effect on number of action potentials at 2× rheobase: infected nodose neurons
# Description: as §1, §2, §3, §4, §5
# [3] = octreotide 1 μM, listed as octreotide
compound,measurement,setting,value
"C[C@@H](O)[C@@H]1NC(=O)[C@H](CCCCN)NC(=O)[C@@H](Cc2c[nH]c3ccccc23)NC(=O)[C@H](Cc2ccccc2)NC(=O)[C@@H](NC(=O)[C@H](N)Cc2ccccc2)CSSC[C@@H](C(=O)N[C@H](CO)[C@@H](C)O)NC1=O [Octreotide, octreotide]",effect on RMP,"[1]; sham neurons, octreotide 1 μM",no significant effect
same,resting membrane potential (RMP),"[1]; sham neurons, octreotide 1 μM, n=27",−54.7±2.1 mV
same,number of action potentials evoked at 2× rheobase (FIG. 23 example),"[1]; sham nodose neuron, after 1 μM octreotide, control in Krebs 2",1 action potential
same,effect on number of action potentials at 2× rheobase,[1]; octreotide 1 μM,reduced the number of action potentials
same,effect on number of action potentials at 2× rheobase,[1]; [3],reduces the number of action potentials
same,difference between the effect of octreotide on sham and infected neurons (action potentials at 2× rheobase),"[2]; 1 μM octreotide, sham vs infected, FIG. 24",no significant difference
same,effect on RMP,"[2]; infected neurons, octreotide 1 μM",no significant effect
same,resting membrane potential (RMP),"[2]; infected neurons, octreotide 1 μM, n=25",−51.7±2.1 mV
same,number of action potentials evoked at 2× rheobase (FIG. 23 example),"[2]; infected nodose neuron, after 1 μM octreotide, control in Krebs 9",2 action potentials
same,effect on number of action potentials at 2× rheobase,[2]; octreotide 1 μM,reduced the number of action potentials
same,effect on number of action potentials at 2× rheobase,[2]; [3],reduces the number of action potentials
